# Assay results taken from patent US12416008B2, “Compositions and methods of use for small-molecule regulation of CRISPR-Cas9 activity using RNA aptamers” (priority 2019, dated 2025).
# Marks after values point to notes of the source that are not given here.
# B1: agRNAs created by Liu et al.: agRNAs created by Liu et al., designed to regulate gene expression via CRISPRi; SEQ ID NO: 74 (nucleic acid)
# guide: ATGATAAAGCTGCTGCAATAGTTTTAGAGCTAGAAATAGCAAGTTAAAATAAGGCTAGTCCGTTATCAACTTGAAAAAGTGGCACCGAGTCGGTGCCAGCAGCTTTATCATATACCACGCGAAAGCGCCTTGGCAGATGATAAAGTTTTTTT
# Columns and labels:
# [1] = target: T1, Streptococcus pyogenes Cas9 (Streptococcus pyogenes serotype M1, UniProt Q99ZW2); assay: electrophoretic mobility shift assay (EMSA) of Cas9 binding to gRNAs; conditions: presence or absence of 250 μM theophylline
# T1 construct: host or cells: E. coli BL21 (DE3) Rosetta
# T1 sequence (Q99ZW2 whole entry): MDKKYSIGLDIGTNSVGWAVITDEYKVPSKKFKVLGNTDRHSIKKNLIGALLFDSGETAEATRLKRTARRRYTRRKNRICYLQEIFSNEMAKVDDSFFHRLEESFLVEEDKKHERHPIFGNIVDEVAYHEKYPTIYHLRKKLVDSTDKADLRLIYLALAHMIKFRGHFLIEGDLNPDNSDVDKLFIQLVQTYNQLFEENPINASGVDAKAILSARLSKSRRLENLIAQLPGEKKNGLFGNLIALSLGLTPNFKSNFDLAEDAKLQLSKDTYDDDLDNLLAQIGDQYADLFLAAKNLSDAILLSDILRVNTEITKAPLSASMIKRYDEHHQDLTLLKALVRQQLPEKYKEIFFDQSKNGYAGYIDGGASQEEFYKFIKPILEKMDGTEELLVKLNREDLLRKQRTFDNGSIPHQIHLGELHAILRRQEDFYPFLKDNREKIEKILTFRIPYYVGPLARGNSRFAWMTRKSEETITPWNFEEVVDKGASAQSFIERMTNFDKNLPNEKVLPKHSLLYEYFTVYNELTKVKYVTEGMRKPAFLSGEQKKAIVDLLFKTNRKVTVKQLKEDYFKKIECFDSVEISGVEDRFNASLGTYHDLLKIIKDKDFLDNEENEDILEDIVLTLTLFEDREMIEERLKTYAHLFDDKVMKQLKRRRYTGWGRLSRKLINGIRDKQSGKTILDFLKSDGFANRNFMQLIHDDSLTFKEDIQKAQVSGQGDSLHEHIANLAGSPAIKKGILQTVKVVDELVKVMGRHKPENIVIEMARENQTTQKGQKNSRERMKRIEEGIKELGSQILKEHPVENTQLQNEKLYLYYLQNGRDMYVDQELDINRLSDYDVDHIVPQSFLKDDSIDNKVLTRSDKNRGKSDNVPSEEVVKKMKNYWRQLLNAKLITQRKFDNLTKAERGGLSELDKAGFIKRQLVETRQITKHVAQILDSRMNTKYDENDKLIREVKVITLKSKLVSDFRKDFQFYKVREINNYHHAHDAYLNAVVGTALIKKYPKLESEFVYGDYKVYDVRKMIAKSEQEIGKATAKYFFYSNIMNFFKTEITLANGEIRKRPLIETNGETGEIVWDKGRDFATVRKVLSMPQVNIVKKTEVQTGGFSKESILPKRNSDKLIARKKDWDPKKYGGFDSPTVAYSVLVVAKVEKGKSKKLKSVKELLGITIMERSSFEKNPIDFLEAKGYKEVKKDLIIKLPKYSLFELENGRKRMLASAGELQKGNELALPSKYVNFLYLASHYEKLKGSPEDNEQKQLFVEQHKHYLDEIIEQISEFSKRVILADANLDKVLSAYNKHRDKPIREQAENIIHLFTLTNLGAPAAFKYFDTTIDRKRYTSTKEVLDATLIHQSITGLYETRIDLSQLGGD
# [2] = tested on: galK 1 site; assay: red/white colony screen of editing efficiency at the galK 1 site (CREATE recombineering); assay type: cell-based, E. coli MG1655; conditions: for Editing Efficiency 1 mM Theo: induced for 3 hours with 1 mM theophylline; for Editing Efficiency no Theo: no theophylline, 3 hours recovery
# Procedure: Candidates from this enriched library were analyzed to inform an improved library design. After three selection/counterselection steps, cells were plated on M63 selection medium^20 and 150 colonies were picked. Each isolated candidate was then transformed into unedited E. coli to screen for theophylline-responsive constructs using a red/white colony assay to quantify the percentage of edited bacteria. Colonies with an unedited galK site appear red whereas edited colonies appear white (FIG. 5). The percentage of white colonies is considered the editing efficiency. Gene editing was induced as previously described with or without adding theophylline and the editing efficiencies were compared.
# The protocol established by Garst et al was mainly followed. LB containing kanamycin and chloramphenicol was inoculated with MGλ9 cells and grown overnight at 30° C. The stationary culture was diluted 100 fold in LB, containing chloramphenicol, kanamycin and 0.2% arabinose and grown to an OD600=0.4-0.6 in 25 mL LB. The culture was heat-shocked in a shaking waterbath at 42° C. for 15 minutes to induce expression of the lambda-red proteins from pSIM5. Then, the culture was washed in two volumes of ice-cold deionized water, resuspended in 500 μl deionized water and 50 μl of the cell suspension was electroporated with 200 ng of a CREATE plasmid that encodes gRNA and homology template. The transformants were recovered in 4 mL of LB, containing 0.2% arabinose and optionally 1 mM theophylline or 1 μM anhydrotetracycline (ATC), and shaken at 37° C. for 3 hours before plating on MacConkey Agar. To estimate the number of cfu, aliquots were plated on LB agar 1 hour after transformation.
# In order to assess the frequency of gene editing, a red/white screen was used to visualize the introduction of a stop codon into the galK gene by CREATE. The original CREATE protocol was used for inducing gene editing and after 3 hours of recovery (with or without the agRNA ligand) a series of dilutions of the cultures were plated on MacConkey Agar plates containing 1% galactose. Bacterial colonies with a mutated galK* site appear white on the plates, whereas non-edited colonies appear red. The editing efficiency could be calculated by dividing the number of edited colonies over the total number of colonies. By comparing the editing efficiency in presence versus absence of the ligand, a dynamic range of the in vivo activity could be determined.
# When screening the enriched libraries for switchable constructs, the transformants were recovered in 4 mL of LB broth, a dilution series was plated for every construct and the experiment was only carried out once due to the large volume of colonies screened (˜250 in total). When the constructs A9 and GU19 were characterized in detail, triplica of the experiment were carried out.
# [3] = tested on: galK1 site; assay: co-transformation of targeting gRNA plasmid with non-targeting gRNA plasmid (simulated library)
# [4] = 9:1 targeting:non-targeting mixture
Molecule,Editing Efficiency 1 mM Theo [2],Editing Efficiency no Theo [2],further results
"A1: agRNA cassette GGGGGGCCTATTTT, SEQ ID NO: 8 (expressed or natural sequence)",66%,0%,"apparent binding affinity to the Cas9 protein [1]: the same apparent binding affinity to the Cas9 protein as the wild type gRNA, independent of theophylline"
"sgRNA: wild-type single guide RNA; cassette AGAGCTAGCAAGTT, SEQ ID NO: 1 (chemistry not given here)",89%**,85%**,"plated bacteria carrying the non-targeting plasmid [3, 4]: 84.8%; plated bacteria expected to carry the targeting CREATE plasmid [3, 4]: 15.2%; # of unedited colonies carrying non-targeting gRNA plasmid ([3]; 16 unedited colonies picked, 20 ng non-targeting + 180 ng targeting plasmid, 1 mM theophylline): 16/16; enrichment of the non-targeting plasmids ([3]; listed as wild type gRNA): 8.6±0.1 fold; enrichment of the non-targeting plasmids ([3]; listed as wt sgRNA): ~8.5 fold; percentage of edited cells ([3]; plasmid mixture 90% targeting galK1, 10% non-targeting (eGFP) gRNA, listed as wild type gRNA): 14%; percentage of edited cells ([3]; plasmid mixture 90% targeting galK1, 10% non-targeting (eGFP) gRNA, listed as wt sgRNA): 13.5%; percentage of edited cells ([3]; transformed exclusively with the targeting plasmid, listed as wild type gRNA): 89%; percentage of edited cells ([3]; transformed exclusively with the targeting plasmid, listed as wt sgRNA): 88.9%"
"GC8: agRNA cassette GGACGGCCCTGTGC, SEQ ID NO: 59 (expressed or natural sequence)",0%,1%,–
"GU13: agRNA cassette GGCCGGCCAAGCAT, SEQ ID NO: 45 (expressed or natural sequence)",6%,0%,–
"A14: agRNA cassette GGAGGTACGGTGCC, SEQ ID NO: 10 (expressed or natural sequence)",87%,2%,–
"GU18: agRNA cassette GATTGGCCTACGGT, SEQ ID NO: 50 (expressed or natural sequence)",1%,0%,–
"GC2: agRNA cassette GTCAGGCCTATACC, SEQ ID NO: 53 (expressed or natural sequence)",0%,0%,–
"A34: agRNA cassette TAGTTTAAACCGTT, SEQ ID NO: 7 (expressed or natural sequence)",57%,12%,–
"GU11: agRNA cassette GTATGGCCTCGGAT, SEQ ID NO: 43 (expressed or natural sequence)",0%,0%,–
"GU1: agRNA cassette GACGGGCCTAATAT, SEQ ID NO: 34 (expressed or natural sequence)",0%,0%,–
"GU15: agRNA cassette GGACGGCCTACAAT, SEQ ID NO: 47 (expressed or natural sequence)",11%,0%,–
"AU20: agRNA cassette AAATGGCCGGCAAT, SEQ ID NO: 33 (expressed or natural sequence)",0%,0%,–
"A10: agRNA cassette GATGGGCCTCCACC, SEQ ID NO: 9 (expressed or natural sequence)",14%,0%,–
"GU9: agRNA cassette GTTCGGCCCCGACT, SEQ ID NO: 41 (expressed or natural sequence)",0%,0%,–
"GU3: agRNA cassette GCAGGGCCTCATTT, SEQ ID NO: 36 (expressed or natural sequence)",0%,0%,–
"GU17: agRNA cassette GTAAGGCCGCCGAT, SEQ ID NO: 49 (expressed or natural sequence)",0%,0%,–
"GU4: agRNA cassette GATTGGCCATACAT, SEQ ID NO: 37 (expressed or natural sequence)",0%,0%,–
"GU5: agRNA cassette GGTTGGCCTAATAT, SEQ ID NO: 38 (expressed or natural sequence)",2%,0%,–
"GC6: agRNA cassette GATTGGCCAGCAAC, SEQ ID NO: 57 (expressed or natural sequence)",40%,1%,–
"AU3: agRNA cassette ACAAGGCCCATAAT, SEQ ID NO: 17 (expressed or natural sequence)",72%,1%,–
"AU15: agRNA cassette ACCCGGCCATTCAT, SEQ ID NO: 28 (expressed or natural sequence)",5%,0%,–
"AU9: agRNA cassette AAACGGCCCACTGT, SEQ ID NO: 23 (expressed or natural sequence)",22%,1%,–
B1,–,–,gene editing activity and ligand dependence (in words) ([2]; with and without aptamer ligand): lead to gene editing with and without the aptamer-ligand
